Reference: patent US20230048678A1, “ICAN DERIVATIVES FOR ANTIFUNGAL USE” (DEBRECENI EGYETEM, priority 2019, published 2023)
Entries after “also recorded” stand apart in the source; their conditions may differ. Values belong to the compound of their own block, whether it stands above or below them.

Experiments:
[1] = system: C. albicans isolates; test: CLSI M27-A3 broth microdilution on Candida isolates (Table 2); type: cell-based
Experimental: (§1) The tested C. albicans, C. tropicalis, C. parapsilosis, C. glabrata and C. krusei ATCC strains and clinical isolates are listed in Table 2. MICs were determined according to the CLSI M27-A3 [22]. Antifungal agents were dissolved in 100% DMSO and diluted further in RPMI-1640 (with L-glutamine but without bicarbonate) (Sigma, Budapest, Hungary), and buffered to pH 7.0 with 0.165 M morpholinopropanesulfonic acid (MOPS; Sigma, Budapest, Hungary). The final concentration ranges used for AMB and ICAN derivatives were 0.125 to 4 μg/ml and 0.04 to 20 μg/ml, respectively. Yeast cell suspensions were prepared in RPMI 1640 medium and were adjusted to give a final inoculum concentration of 0.5×10^3 to 2.5×10^3 cells/ml. MICs were read visually after 48-h incubation at 35° C. using the partial (50%) inhibition (for ICAN derivatives) (PI) and total inhibition (for AMB and ICAN derivatives) (TI) criteria. MICs were determined at least twice. For amphotericin B isolates with MIC values of ≤2 mg/L were considered wild-types. [Pfaller M A, 2012]

[2] = system: C. glabrata isolates; test: as above; type: cell-based
Experimental: as §1

[3] = system: C. krusei isolates; test: as above; type: cell-based
Experimental: as §1

[4] = system: C. parapsilosis isolates; test: as above; type: cell-based
Experimental: as §1

[5] = system: C. tropicalis isolates; test: as above; type: cell-based
Experimental: as §1

[6] = system: clinical Candida isolates (C. albicans, C. krusei, C. tropicalis, C. glabrata, C. parapsilosis); test: Broth microdilution, MIC summarised over all clinical Candida isolates; type: cell-based; conditions: range or bound over all tested isolates of five Candida species; read-out: total minimum inhibitory concentration (MICTI)
Experimental: The present inventors have discovered that 1-amino-5-isocyanonaphthalene (ICAN) and its derivatives exert excellent antifungal activity against a broad range of Candida species. […] Nevertheless, proper formulation and/or substitution with solubility enhancer groups on the naphthalene core may increase its effectiveness. Based on MIC values (MICPI=0.04−0.3 μg/ml MICTI=0.6 μg/ml) and its low cytotoxicity 1,1-N-dimethylamino-5-isocyanonaphthalene (DIMICAN) was selected to be tested on clinical Candida isolates. […] Amphotericin B (AMB) is an antifungal agent which is effective against a number of medically important fungi. The in vivo applicability of DIMICAN was tested on immunosuppressed mice and control experiments were also conducted with amphotericin B. In the model of acute invasive candidiasis, neutropenic mice were infected intravenously with C. albicans isolate 3666 (3×10^4 cfu/mouse) to establish an acute infection, and all untreated control animals died within 6 days. […]
The tested C. albicans, C. tropicalis, C. parapsilosis, C. glabrata and C. krusei ATCC strains and clinical isolates are listed in Table 2. MICs were determined according to the CLSI M27-A3 [22]. […] MICs were read visually after 48-h incubation at 35° C. using the partial (50%) inhibition (for ICAN derivatives) (PI) and total inhibition (for AMB and ICAN derivatives) (TI) criteria. MICs were determined at least twice. […]

[7] = system: C. albicans isolate 3666; test: Murine model, kidney fungal burden; type: in vivo, BALB/c mice; conditions: immunosuppressed mice, 10^4 cfu/mouse iv
Experimental: During an independent in vivo experiment mice were infected intravenously with C. albicans isolate 3666. The infected mice were euthanized 2 or 6 days after infection (n=5 and 6 mice/time point, respectively), as disclosed herein, to determine the fungal burdens in the kidneys. Kidney burden was analyzed using a Kruskal-Wallis test with Dunn's posttest for multiple comparisons [Foldi R 2012, Kovacs R 2014]. Results of fungal burden experiments are shown on FIGS. 3b and c. […] It is well seen in […], that on day 6. the fungal burden increased by an order of magnitude (from −10^5 to −10^6) in the case of the untreated mice, while in the case of DIMICAN it remained the same as it was on day 2. The same is valid for AMB.
We used 10-12 week-old female BALB/c mice for all experiments. Mice were immunosuppressed using 150 mg/kg intraperitoneal (ip) cyclophosphamide dose (4 days prior to infection) and 100 mg/kg ip cyclophosphamide dose (1 day prior to infection; 2 and 5 days after infection) [Spellberg B, 2005]. All mice received ceftazidime (5 mg/day subcutaneously) from days 0 to 6 after infection. Mice were given food and water ad libitum and were monitored daily. The animals were maintained in accordance with the Guidelines for the Care and Use of Laboratory Animals, and the experiments were approved by the Animal Care Committee of the University of Debrecen, Debrecen, Hungary (permission no. 12/2014).
Mice were infected via the lateral tail vein with C. albicans 3666 bloodstream isolate. In the lethality (10 mice/group) and fungal tissue burden experiments (6 mice/group) the infectious doses were 3×10^4 and 10^4 cfu/mouse, respectively. These doses led to 100% and 0% mortality, respectively by day 6 after infection among untreated mice. Inoculum density was confirmed by plating serial dilutions onto Sabouraud dextrose agar (SDA) plates.
AMB (Fungizone, commercial preparation) and DIMICAN treatment in a 0.5-ml bolus was started 1 h after infection. The doses were 1 mg AMB and 5 mg DIMICAN (in olive oil/water (o/w) emulsion) per kg body weight. All antifungals were administered intraperitoneally once daily for 5 consecutive days.
Infected mice were euthanized 2 or 6 days after infection (n=6 mice/time point) to determine the fungal burden in the kidney. […] Aliquots of 0.1 ml of the undiluted and diluted homogenates were plated onto SDA, and the colony count was determined after 48 h. Colony-forming units (CFUs) were determined after 48 h of incubation at 37° C. and results were expressed as cfus/g tissue [Spellberg B, 2005]. […]
Survival effects were analyzed by the Kaplan—Meier log-rank test. Kidney burden was analysed using a Kruskal—Wallis test with Dunn's posttest for multiple comparisons [Foldi R 2012, Kovacs R 2014].

[8] = system: C. albicans SC5314; test: CLSI broth microdilution susceptibility (Table 1); type: cell-based; conditions: 48 h, 35° C.; for MICPI: partial (50%) inhibition; for MICTI: total inhibition
Experimental: (§2) ICAN has 3 key moieties, namely the amino, naphthalene and isonitrile. To find out which ones of them are essential for the antifungal behavior and to design more efficient derivatives, comparative studies were carried out, where one of the moieties was exchanged or eliminated. All ICAN derivatives were tested against C. albicans SC5314, C. krusei ATCC 6258 and C. parapsilosis ATCC 22019. The antifungal agents were dissolved in 100% DMSO and diluted further in RPMI-1640 (with L-glutamine but without bicarbonate) and buffered to pH 7.0 with 0.165 M morpholinopropanesulfonic acid (MOPS). MICs were read visually after 48-h incubation at 35° C. using the partial (50%) inhibition (for ICAN derivatives) (PI) and total inhibition (for AMB and ICAN derivatives) (TI) criteria. MICs were determined at least twice.
as §1

[9] = system: C. krusei ATCC 6258; test: CLSI broth microdilution susceptibility (Table 1); type: cell-based; conditions: 48 h, 35° C.; for MICPI: partial (50%) inhibition; for MICTI: total inhibition
Experimental: as §2, §1

[10] = system: C. parapsilosis ATCC 22019; test: CLSI broth microdilution susceptibility (Table 1); type: cell-based; conditions: 48 h, 35° C.; for MICPI: partial (50%) inhibition; for MICTI: total inhibition
Experimental: as §2, §1

[11] = system: C. albicans SC5314, C. krusei ATCC 6258 and C. parapsilosis ATCC 22019; test: CLSI broth microdilution, MIC summarised over the three Candida test strains; type: cell-based; conditions: for MICTI: value or range over the three Candida strains of Table 1, total inhibition
Experimental: as §2, §1

[12] = system: human cell cultures; test: MTT bio assay cytotoxicity; type: cell-based; conditions: MTT bio assay technique

MICTI ([1]; isolate 456): 0.5 µg/mL | MICTI ([1]; isolate 665): 1 µg/mL | MICTI ([1]; isolate 685): 0.25 µg/mL | MICTI ([1]; isolate 720): 0.5 µg/mL | MICTI ([1]; isolate 963): 0.5 µg/mL | MICTI ([1]; isolate 1544): 0.25 µg/mL | MICTI ([1]; isolate 3666): 0.5 µg/mL | MICTI ([1]; isolate 8658): 1 µg/mL | MICTI ([1]; isolate ATCC 10231): 0.25 µg/mL | MICTI ([2]; isolate 14408): 0.5 µg/mL | MICTI ([2]; isolate 14559): 0.5 µg/mL | MICTI ([2]; isolate 22394): 0.5 µg/mL | MICTI ([2]; isolate 23429): 1 µg/mL | MICTI ([2]; isolate 23481): 1 µg/mL | MICTI ([2]; isolate 27643): 0.5 µg/mL | MICTI ([2]; isolate 28557): 0.5 µg/mL | MICTI ([2]; isolate ATCC 90030): 0.5 µg/mL | MICTI ([3]; isolate 749): 1 µg/mL | MICTI ([3]; isolate 1853): 1 µg/mL | MICTI ([3]; isolate 4364): 1 µg/mL | MICTI ([3]; isolate 5029): 1 µg/mL | MICTI ([3]; isolate 5072): 1 µg/mL | MICTI ([3]; isolate 25504): 0.5 µg/mL | MICTI ([3]; isolate 34987): 1 µg/mL | MICTI ([3]; isolate ATCC 6258): 1 µg/mL | MICTI ([4]; isolate 4133): 0.25 µg/mL | MICTI ([4]; isolate 9613): 0.25 µg/mL | MICTI ([4]; isolate 10252): 0.5 µg/mL | MICTI ([4]; isolate 18154): 0.5 µg/mL | MICTI ([4]; isolate 27001): 0.25 µg/mL | MICTI ([4]; isolate ATCC 22019): 0.5 µg/mL | MICTI ([5]; isolate 579): 0.5 µg/mL | MICTI ([5]; isolate 622): 1 µg/mL | MICTI ([5]; isolate 1776): 1 µg/mL | MICTI ([5]; isolate 2467): 0.5 µg/mL | MICTI ([5]; isolate 3014): 0.5 µg/mL | MICTI ([5]; isolate 5115): 0.5 µg/mL | MICTI ([5]; isolate 5806): 0.25 µg/mL | MICTI ([5]; isolate ATCC 750): 0.5 µg/mL | MIC [6]: ≤ 2 µg/mL
Structure (SMILES): C[C@@H]1[C@H](O)[C@@H](C)/C=C/C=C/C=C/C=C/C=C/C=C/C=C/[C@H](O[C@@H]2O[C@H](C)[C@@H](O)[C@H](N)[C@@H]2O)C[C@@H]2O[C@](O)(C[C@@H](O)C[C@@H](O)[C@H](O)CC[C@@H](O)C[C@@H](O)CC(=O)O[C@H]1C)C[C@H](O)[C@H]2C(=O)O [AMB, Amphotericin B, reference compound]
effect on kidney fungal burden, six days after infection ([7]; 5 mg/kg DIMICAN or 1 mg/kg AMB ip once daily for 5 days, p<0.05 (AMB), p<0.001 (DIMICAN) vs control): efficient; also recorded: significantly lower fungal burden | effect on kidney fungal burden, two days after infection ([7]; 5 mg/kg DIMICAN or 1 mg/kg AMB ip once daily, P>0.05 vs control): no effect on fungal load

Structure (SMILES): Nc1cccc2c(N)cccc12 [DAN, 1,5-diaminonaphthalene, reference compound]
MICPI [8]: 50 µg/mL | MICTI [8]: 100 µg/mL | MICPI [9]: 50 µg/mL | MICTI [9]: 100 µg/mL | MICPI [10]: 50 µg/mL | MICTI [10]: 100 µg/mL

MICPI [8]: 0.3 µg/mL | MICTI [8]: 0.6 µg/mL | MICPI [9]: 0.3 µg/mL | MICTI [9]: 0.6 µg/mL | MICPI [10]: 0.3 µg/mL | MICTI [10]: 0.6 µg/mL | MICPI ([11]; value or range over the three Candida strains of Table 1, partial (50%) inhibition): 0.3 µg/mL | MICTI [11]: 0.6 µg/mL
Structure (SMILES): [C-]#[N+]c1cccc2c([N+]#[C-])cccc12 [DIN, 1,5-diisocyanonaphthalene]

MICPI [8]: 0.6 µg/mL | MICTI [8]: 2.5 µg/mL | MICPI [9]: 0.6 µg/mL | MICTI [9]: 1.25 µg/mL | MICPI [10]: 0.6 µg/mL | MICTI [10]: 1.25 µg/mL | MICTI [11]: 1.25 to 2.5 µg/mL
Structure (SMILES): [C-]#[N+]c1cccc2c(NCC)cccc12 [EICAN, N-ethyl-1-amino-5-isocyanonaphthalene]

Structure (SMILES): [C-]#[N+]c1cccc2c(N)cccc12 [ICAN, 1-amino-5-isocyanonaphthalene]
MICPI [8]: 1.25 µg/mL | MICTI [8]: 5 µg/mL | MICPI [9]: 0.6 µg/mL | MICTI [9]: 2.5 µg/mL | MICPI [10]: 0.3 µg/mL | MICTI [10]: 0.6 µg/mL | MICTI [11]: 0.6 to 5 µg/mL | LD50 [12]: 10 µg/mL

Structure (SMILES): [C-]#[N+]c1ccc([N+]#[C-])cc1 [PDI, 1,4-phenylenediisocyanide, reference compound]
MICPI [8]: 50 µg/mL | MICTI [8]: 100 µg/mL | MICPI [9]: 50 µg/mL | MICTI [9]: 100 µg/mL | MICPI [10]: 50 µg/mL | MICTI [10]: 100 µg/mL

MICPI [8]: 0.6 µg/mL | MICTI [8]: 2.5 µg/mL | MICPI [9]: 0.15 µg/mL | MICTI [9]: 2.5 µg/mL | MICPI [10]: 0.6 µg/mL | MICTI [10]: 1.75 µg/mL | MICTI [11]: 1.75-2. μg/ml
Structure (SMILES): [C-]#[N+]c1cccc2c(NCCC)cccc12 [PICAN, N-(prop-1-yl)-1-amino-5-isocyanonaphthalene]
